# Measured values reported in patent publication US20250195553A1, “Use of Genipin-1-B-D-Gentiobioside in Preparation of Drug” (Guizhou Bailing Group Pharmaceutical Co., Ltd., priority 2023, published 2025).
# Like-named read-outs stand apart in the source and are kept apart here.
# How the values were obtained:
# [1] = system: Mycoplasma Pneumoniae (MP); assay: Mycoplasma pneumoniae-infected mouse pneumonia model: lung index; type: in vivo, BALB/C mice; set-up: First Batch Inhibition Rate: unit not given here
# [2] = system: Mycoplasma Pneumoniae (MP); assay: Inflammatory factors in lung tissue of MP-infected mice (ELISA); type: in vivo, BALB/C mice; details: 42 mg/kg
# Procedure: […] Each group consisted of 10 mice, with an equal number of males and females. Except for the normal control group, all mice were lightly anesthetized with isoflurane and infected intranasally with Mycoplasma Pneumoniae (50 μl per mouse) for three consecutive days. On the day of infection, each treatment group received nebulized medication once daily for four consecutive days, while the normal control group and model control group received nebulized saline under the same conditions. On the fifth day, the mice were weighed, sacrificed by cervical dislocation, and their lung tissues were dissected, weighed, and used to calculate the lung index and lung index inhibition rate; measure the levels of inflammatory factors in the lung tissue; measure the serum CRP levels; and conduct pathological examinations of the lung tissue. The results were statistically analyzed using the t-test for intergroup comparisons.
# (1) Sample Collection and Storage: Tissue Homogenate Samples: After weighing, lung tissues were collected from 8 mice in each group and stored at −80° C. The MP Fastprep-24 5G Rapid Sample Preparation System was used to homogenize the tissues, followed by centrifugation at […] and 3000 r/min for 10 minutes using a low-temperature high-speed centrifuge. The supernatant was then aspirated, aliquoted, and stored at −80° C. for future use, avoiding repeated freeze-thaw cycles.
# (2) The microplate, which had been equilibrated to room temperature, was removed from the sealed bag. Different concentrations of standards were added to the corresponding wells, with 50 μL per well. For experimental samples, 10 μL of sample was added to each well, followed by 40 μL of diluent. Except for the blank wells, 100 μL of HRP (Horseradish Peroxidase) was added to each well. The reaction wells were sealed with sealing tape and incubated at 37° C. for 1 hour. The plate was then washed with wash buffer four times. After the final wash, the plate was inverted and all residual liquid was patted dry on absorbent paper. 50 μL of both Substrate A and Substrate B were added to each well. The reaction wells were then sealed with sealing tape and incubated at 37° C. for 15 minutes. After that, 50 μL of stop solution was added to each well, and the absorbance at 450 nm was measured using a microplate reader within 15 minutes. The results were then calculated.
# [3] = system: Mycoplasma Pneumoniae (MP); assay: Pathological changes in lung tissue of MP-infected mice (HE staining); type: in vivo, BALB/C mice; set-up: Alveolitis Lesion Degree / Bronchial Damage / Histological Damage Degree: scale not given here; details: Azithromycin Group
# Procedure: Fifty BALB/C mice, weighing 14±1 g, were randomly divided into five groups: a normal control group, a model control group, an azithromycin control group, a high-dose Genipin-1-β-D-gentiobioside group (75 mg/ml) with 15-minute nebulization, and a low-dose Genipin-1-β-D-gentiobioside group (37.5 mg/ml) with 15-minute nebulization. Each group consisted of 10 mice, with an equal number of males and females. Except for the normal control group, all mice were lightly anesthetized with isoflurane and infected intranasally with Mycoplasma Pneumoniae (50 μl per mouse) for three consecutive days. On the day of infection, each treatment group received nebulized medication once daily for four consecutive days, while the normal control group and model control group received nebulized saline under the same conditions. On the fifth day, the mice were weighed, sacrificed by cervical dislocation, and their lung tissues were dissected, weighed, and used to calculate the lung index and lung index inhibition rate; measure the levels of inflammatory factors in the lung tissue; measure the serum CRP levels; and conduct pathological examinations of the lung tissue. The results were statistically analyzed using the t-test for intergroup comparisons.
# 2.4 Pathological Changes in Mouse Lung Tissue (HE Staining Method)
# [4] = system: Human Coronavirus OC43 (HCoV-OC43); type: in vivo; details: mouse, in vivo
# [5] = system: Human Coronavirus OC43 (HCoV-OC43); type: in vivo; details: 90 mg/kg administration by gavage
# [6] = system: Human Respiratory Syncytial Virus (RSV); assay: RSV viral load in mouse lung tissue (RT-PCR), nebulization; type: in vivo; details: dosage 82.5 (mg/ml), nebulization time 25 min
# Procedure: […] Each group consisted of 10 mice, with an equal number of males and females. Except for the normal control group, all mice were lightly anesthetized with isoflurane and infected with respiratory syncytial virus (RSV) via intranasal administration, with each mouse receiving 35 μl of the virus. On the day of infection, the treatment groups began inhalation administration. Each group received nebulization for 25 minutes once daily for four consecutive days. The normal control group and the model control group received nebulized saline under the same conditions. On the fifth day, after weighing, the mice were sacrificed by cervical dislocation, and their lung tissues were dissected, weighed, and used to calculate the lung index and lung index inhibition rate. The lung tissues were also retained for virus load, pathological examination, and inflammatory factor detection. The results were statistically analyzed using the t-test for intergroup comparisons.
# After dissecting the mice, the lung tissues were collected and stored in separate containers at −80° C. in a low-temperature freezer. The lung tissues were then removed from the −80° C. freezer and placed in a clean mortar. A small amount of liquid nitrogen was poured into the mortar, and the tissues were ground into powder using a pestle. The powder was collected in a 1.5 ml centrifuge tube, and 1 ml of TRIzol Reagent was immediately added. The tube was gently tapped at the bottom to mix the sample and ensure it was resuspended as soon as possible. The centrifuge tube was then placed horizontally at room temperature and incubated for 20 minutes. Next, it was centrifuged at 4° C. and 12,000 rpm for 10 minutes. The clear supernatant was transferred to a new 1.5 ml centrifuge tube, and 0.2 ml of chloroform was added. The tube was tightly capped, vigorously shaken for 15 seconds, and then incubated at room temperature for 2-3 minutes until the liquid separated into layers. After centrifuging at 4° C. and 12,000 rpm for 15 minutes, the transparent supernatant was carefully transferred to a new 1.5 ml centrifuge tube. Then, 0.5 ml of isopropanol was added, mixed well, and incubated at room temperature for 30 minutes. Following centrifugation at 4° C. and 12,000 rpm for 10 minutes, the supernatant was discarded. The precipitate was gently washed with 1 ml of 75% ethanol (to allow the white precipitate to float slightly), and then centrifuged at 4° C. and 7,500 rpm for 5 minutes. The supernatant was completely aspirated, and the RNA precipitate was briefly dried for 5-10 minutes. The precipitate was then dissolved in 20 μl of DEPC (Diethylpyrocarbonate)-treated water and stored in a −80° C. low-temperature freezer.
# Treatment of Control Nucleic Acid: DEPC-H2O was used as a negative control. For the positive control, a series of four concentrations were prepared by gradient dilution at 10^7, 10^6, 10^5, and 10^4 copies/ml.
# Reagent Preparation: Mix n×18 μl of RSV nucleic acid fluorescent PCR detection mixture, n×1 μl of internal control, and n×1 μl of RT-PCR enzyme (where n is the number of reaction tubes). Shake vigorously for a few seconds and centrifuge at 3000 rpm for a few seconds.
# Sample Addition: Dispense 20 μl of the above mixture into each PCR tube. Then, add 5 μl of sample nucleic acid extract, DEPC-H2O, and positive control to the respective PCR tubes. Tightly close the tube caps, centrifuge for a few seconds to ensure all liquids are at the bottom, and immediately proceed with PCR amplification.
# PCR Amplification: Place the reaction tubes in a quantitative fluorescent PCR instrument. Set the cycling parameters as follows: 45° C. for 10 minutes; 95° C. for 15 minutes; then 40 cycles of 95° C. for 15 seconds→60° C. for 60 seconds. Single-point fluorescent detection is performed at 60° C., with a reaction volume of 25 μl.
# Fluorescent Channel Selection: Select the FAM and HEX/VIC/JOE channels for detection. […]
# [7] = system: Lipopolysaccharide (LPS)-induced pneumonia model in mice; assay: LPS-induced pneumonia model in mice, intravenous injection: lung index; type: in vivo, ICR mice; details: 50 mg/kg i.v. once daily 2 days
# Procedure: (§1) Sixty healthy mice, weighing 18˜20 g, half male and half female, were selected and randomly grouped after stratification by weight; they were divided into a normal control group, a model control group, three Genipin-1-β-D-gentiobioside dose groups (150 mg/kg/d, 75 mg/kg/d, 37.5 mg/kg/d), and a positive control drug Sivelestat Sodium 50 mg/kg/d group, with 10 mice in each group, half male and half female. After grouping, each treatment group was administered intravenously at 20 ml/kg once daily for 2 consecutive days, while the normal control group and model control group were injected with physiological saline. One hour after the second dose, except for the normal control group, the other groups were lightly anesthetized with isoflurane, and a 20 mg/ml LPS physiological saline solution was administered intranasally to the mice at 0.05 ml/mouse to induce the pneumonia model. Six hours after infection, the animals were sacrificed, dissected, and their lungs were removed and weighed to calculate the lung index (lung index=lung weight/body weight×100%).
# [8] = system: Lipopolysaccharide (LPS)-induced pneumonia model in mice; assay: Inflammatory factors in lung tissue of LPS-induced pneumonia mice (ELISA); type: in vivo, ICR mice; details: dosage 50 (mg/ml), i.v.
# Procedure: as §1
# (1) Sample Collection and Storage: Tissue homogenate samples: The lung tissues of mice were collected and weighed, including those from mice numbered 1, 2, 3, 6, 7, and 8 in each group. The tissues were stored at […] An ultrasonic cell disruptor was used to homogenize the tissues, followed by centrifugation at […] and 1000 r/min for 10 minutes using a low-temperature high-speed centrifuge. The supernatant was then collected, aliquoted, and stored at −80° C. for future use, avoiding repeated freeze-thaw cycles.
# (2) The microwell plate, which had been equilibrated to room temperature, was removed from the sealed bag. Different concentrations of standards, experimental samples, or quality control samples were added to the corresponding wells, with 100 μL per well. The reaction wells were sealed with sealing tape and incubated at room temperature for 2 hours. The plate was then washed with wash buffer, repeating the operation four times. After the final wash, the plate was inverted and all residual liquid was patted dry on absorbent paper. Next, 100 μL of enzyme-labeled detection antibody was added to each microwell. The reaction wells were sealed again with sealing tape and incubated at room temperature for another 2 hours. The washing step was repeated as described above. Then, 100 μL of substrate solution was added to each microwell and incubated at room temperature for 30 minutes, protected from light. Within 30 minutes after adding 100 μL of stop solution to each microwell, the absorbance at 450 nm was measured using a microplate reader. The results were then calculated.
# [9] = 42 mg/kg administration by gavage, first batch
# [10] = 42 mg/kg administration by gavage
structure (smiles),measurement,setting,value
"CC[C@H]1OC(=O)[C@H](C)[C@@H](O[C@H]2C[C@@](C)(OC)[C@@H](O)[C@H](C)O2)[C@H](C)[C@@H](O[C@@H]2O[C@H](C)C[C@H](N(C)C)[C@H]2O)[C@](C)(O)C[C@@H](C)CN(C)[C@H](C)[C@@H](O)[C@]1(C)O [Azithromycin, azithromycin, reference compound]",First Batch Inhibition Rate,[1]; [9],65.93
same,First Batch Lung Index,[1]; [9],0.77 ± 0.05
same,Second Batch Inhibition Rate,[1]; [10],98.72
same,Second Batch Lung Index,[1]; [10],0.62 ± 0.09
same,Second Batch Inhibition Rate,[1]; injection administration,98.26
same,Second Batch Lung Index,[1]; injection administration,0.62 ± 0.06
same,Inflammatory Factor Levels in Lung Tissue IL-1β,[2],144.98 ± 15.93 pg/mL
same,Inflammatory Factor Levels in Lung Tissue IL-6,[2],85.26 ± 25.59 pg/mL
same,Inflammatory Factor Levels in Lung Tissue TNF-α,[2],345.86 ± 53.85 pg/mL
same,Alveolitis Lesion Degree,[3],59.70
same,Bronchial Damage,[3],54.80
same,Histological Damage Degree,[3],2.43 ± 0.32
same,Interstitial Inflammatory Cell Infiltration,[3],58.80
"CCN(CC)CCCC(C)Nc1ccnc2cc(Cl)ccc12 (stereo not drawn) [Chloroquine, Chloroquine Phosphate, reference compound]",Inhibition Rate (lung index),[4],42.72%
same,Lung Index,[4],0.80 ± 0.05 g lung weight × 100 g/body weight
same,Inhibition Rate (lung index),[5],96.56%
same,Lung Index,[5],0.73 ± 0.11 g lung weight × 100 g/body weight
"NC(=O)c1ncn([C@@H]2O[C@H](CO)[C@@H](O)[C@H]2O)n1 [Ribavirin, reference compound]",Inhibition Rate (viral load),[6],69.54%
same,Viral Load in lung tissue,[6],17063.48 ± 16203.78 copies/ng
"CC(C)(C)C(=O)Oc1ccc(S(=O)(=O)Nc2ccccc2C(=O)NCC(=O)O)cc1 [Sivelestat Sodium, reference compound]",Inhibition Rate (lung index),[7],85.50
same,Lung Index,[7]; 6 h after LPS,0.86 ± 0.07 g/100 g body weight
same,Inflammatory Factor Levels in Lung Tissue IL-6,[8],15.79 ± 2.08 pg/mL
same,Inflammatory Factor Levels in Lung Tissue IL-10,[8],36.11 ± 4.87 pg/mL
same,Inflammatory Factor Levels in Lung Tissue TNF-α,[8],98.88 ± 11.21 pg/mL
